Results published in patent US8722910B2, “Diyne compositions” (Evolva AG, priority 2009, dated 2014).
Converted amounts (≈) assume the structure as drawn. Read-outs that look alike come from different tables or passages of the source.

Legend:
M. cookie = experiment: In vitro antifungal activity vs. dermatophytes (MIC/MFC); type: cell-based; details: M. cookie (n = 1)
C. albicans SC5314 = experiment: MIC versus reference Candida strains (broth micro dilution); type: cell-based
Escherichia coli 700 = experiment: In vitro Antibacterial Activity; type: cell-based
[1] = In vitro Mammalian Cell Cytotoxicity; type: cell-based; details: African green monkey, Vero cells
C. albicans = experiment: Time course of the fungicidal effect; type: cell-based; details: after 3 hours of incubation
From the text: Samples were removed periodically, filtered, washed and plated onto nutrient agar.

C. albicans ATCC-24433 = experiment: MIC versus reference Candida strains (broth micro dilution); parameters: MICs (100% inhibition): unit not given beside the values; details: for MIC: Candida albicans
C. albicans ATCC-90028 = experiment: as above; parameters: MICs (100% inhibition): unit not given beside the values; details: for MIC: Candida albicans
C. glabrata ATCC-90030 = experiment: as above; parameters: MICs (100% inhibition): unit not given beside the values; details: for MIC: Nakaseomyces glabratus
C. krusei ATCC-6258 = experiment: as above; parameters: MICs (100% inhibition): unit not given beside the values; details: for MIC: Pichia kudriavzevii
[2] = tested on: C. parapsilosis ATCC-22019; experiment: as above; parameters: MICs (100% inhibition): unit not given beside the values; details: for MIC: Lodderomyces parapsilosis
[3] = tested on: C. parapsilosis ATCC-90018; experiment: as above; parameters: MICs (100% inhibition): unit not given beside the values; details: for MIC: Lodderomyces parapsilosis
C. tropicalis ATCC-750 = experiment: as above; parameters: MICs (100% inhibition): unit not given beside the values; details: for MIC: Candida tropicalis
A. flavus = experiment: Susceptibility of clinical Aspergillus isolates (MIC); type: cell-based
Protocol: (§1) The efficacy of compound IV″ was investigated on 563 clinical isolates of 33 human fungal pathogens. […] For species with n≧10, the MIC90 (MIC, minimal inhibitory concentration) is given as ng/ml. For species with n≦10, the MIC range is given as ng/ml. 24 h and 48 h reads are indicated (Table 1).
(§2) Susceptibilities were determined according to the CLSI reference method M38-A2.

A. fumigatus = experiment: as above; type: cell-based
Protocol: as §1, §2

A. nidulans = experiment: as above; type: cell-based; details: 24 h
Protocol: as §1, §2

A. niger = experiment: as above; type: cell-based; details: 24 h
Protocol: as §1, §2

A. terreus = experiment: as above; type: cell-based
Protocol: as §1, §2

A. versicolor = experiment: as above; type: cell-based
Protocol: as §1, §2

B. dermatitidis = experiment: Susceptibility of clinical dimorphic fungi (MIC); type: cell-based; details: B. dermatitidis (n = 30)
[4] = Stability of diyne salts on storage (HPLC content); type: physicochemical; details: crystalline solid
Protocol: Potassium (Z)-14-(furan-2-yl)tetradeca-9-en-11,13-diynoate was kept as a crystalline solid for 6 month at 2-8° C. The content of potassium (Z)-14-(furan-2-yl)tetradeca-9-en-11,13-diynoate was determined by HPLC against a reference sample kept at −20° C. After 6 months of storage characteristics such as colour, water content, XRPD profile, of the solid had not changed and it was still a beige solid. […] Also no change in the impurity profile was observed after 6 months storage.
Potassium (Z)-14-(furan-2-yl)tetradeca-9-en-11,13-diynoate was also kept as a crystalline solid for 6 month at 25° C., 60% RH. Analysis was performed as described above. After 6 months of storage characteristics of the solid has not changed and it was still a beige solid. […] Also no change in the impurity profile was observed after 6 months storage.
Potassium (Z)-14-(furan-2-yl)tetradeca-9-en-11,13-diynoate was also kept as a crystalline solid for 6 month at 40° C., 75% RH. Analysis was performed as described above. After 6 months of storage the appearance of the solid had changed to a brown solid. Furthermore, a decrease in the content of potassium (Z)-14-(furan-2-yl)tetradeca-9-en-11,13-diynoate to 96% was observed as analysed by HPLC.
Sodium (Z)-14-(furan-2-yl)tetradeca-9-en-11,13-diynoate was kept as an amorphous solid at room temperature. […] Furthermore the salt was dissolved in an aqueous solution and already after few days the content of sodium (Z)-14-(furan-2-yl)tetradeca-9-en-11,13-diynoate was reduced by 35%, thus proving strong instability of the amorphous salt form.

With `O=C(O)CCCCCCC/C=C\C#CC#Cc1ccco1` [Compound III″] the MIC (M. cookie; 96 h, 35° C., 4 days) was 1 µg/mL (≈ 3.52 µM), the MFC (M. cookie) was 2 µg/mL (≈ 7.03 µM) and the “MIC90/MIC range 48 h” value (M. cookie; 48 h) was 1000 ng/mL (≈ 3.52 µM). It also gave an MIC (C. albicans SC5314) of 0.5 ng/mL (≈ 0.00176 µM), an MIC90 (Escherichia coli 700) of over 200 µg/mL and a CC50 [1] of 46 µg/mL (≈ 162 µM). For the same compound, the “reduction in C. albicans CFUs” value (C. albicans) was over 3 log, the MIC (C. albicans ATCC-24433; ATCC24433) was 1.25 ng/mL (≈ 0.0044 µM) and the MIC (C. albicans ATCC-90028; ATCC90028) was 1.25 ng/mL (≈ 0.0044 µM). It also gave an MIC (C. glabrata ATCC-90030; ATCC90030) of 0.01 µg/mL (≈ 0.0352 µM), an MIC (C. krusei ATCC-6258; ATCC6258) of 0.01 µg/mL (≈ 0.0352 µM) and an MIC ([2]; ATCC22019) of 2.56 µg/mL (≈ 9 µM). For the same compound, the MIC ([3]; ATCC90018) was 2.56 µg/mL (≈ 9 µM) and the MIC (C. tropicalis ATCC-750; ATCC750) was 2.5 ng/mL (≈ 0.00879 µM).

In the case of `O=C([O-])CCCCCCC/C=C\C#CC#Cc1ccco1.[K+]` [Compound IV″, potassium (Z)-14-(furan-2-yl)tetradeca-9-en-11,13-diynoate], the “MIC90/MIC range 48 h” value (A. flavus; A. flavus (n = 5), MIC range, 48 h) is reported as over 5120 ng/mL, the MIC50 (A. flavus; Aspergillus flavus, 24 h) is reported as over 5.12 µg/mL and the “MIC90/MIC range 24 h” value (A. fumigatus; A. fumigatus (n = 40), MIC90, 24 h) is reported as 160 ng/mL. The “MIC90/MIC range 48 h” value (A. fumigatus; A. fumigatus (n = 40), MIC90, 48 h) was 1280 ng/mL, the MIC50 (A. fumigatus; Aspergillus fumigatus, 24 h) was 0.08 µg/mL and the MIC50 (A. nidulans) was 5.12 µg/mL. The MIC50 (A. niger) was 2.56 µg/mL, the “MIC90/MIC range 24 h” value (A. terreus; A. terreus (n = 5), MIC range) was 10 to 20 ng/mL and the MIC50 (A. terreus; Aspergillus terreus, 24 h) was 0.01 µg/mL. For the same compound, the “MIC90/MIC range 24 h” value (A. versicolor; A. versicolor (n = 4), MIC range, 24 h) was 80 to 2560 ng/mL, the “MIC90/MIC range 48 h” value (A. versicolor; A. versicolor (n = 4), MIC range, 48 h) was 160 to 5120 ng/mL and the MIC50 (A. versicolor; Aspergillus versicolor, 24 h) was 1.28 µg/mL. For the same compound, the “MIC90/MIC range 48 h” value (B. dermatitidis; MIC90, 48 h) was 30 ng/mL, the MIC90 (B. dermatitidis; Blastomyces dermatitidis, CLSI M38-A2, 50% growth reduction, MIC read at 96 h) was 0.03 µg/mL and the MIC (C. albicans SC5314) was 1.25 ng/mL. The “content after storage (HPLC)” value ([4]; 6 month at 2-8° C.) was “had not significantly changed”, the “content after storage (HPLC)” value ([4]; 6 month at 25° C., 60% RH) was “had not changed significantly” and the “content after storage (HPLC), decrease to” value ([4]; 6 month at 40° C., 75% RH) was 96%. For the same compound, the MIC breakpoints (C. albicans ATCC-24433; C. albicans ATCC 24433, CLSI M27-A3, growth inhibition of 100%, 35° C., 24 hrs) was 2.5 ng/mL, the “MICs (100% inhibition)” value (C. albicans ATCC-24433; C. albicans ATCC 24433, NCCLS M27A, 35° C., 24 hrs) was 2.5 and the MIC (C. albicans ATCC-24433; ATCC24433, read-out: minimal inhibitory concentrations) was 2.5 ng/mL. The MIC breakpoints (C. albicans ATCC-90028; C. albicans ATCC 90028, CLSI M27-A3, growth inhibition of 100%, 35° C., 24 hrs) was 5 ng/mL, the “MICs (100% inhibition)” value (C. albicans ATCC-90028; C. albicans ATCC 90028, NCCLS M27A, 35° C., 24 hrs) was 5 and the MIC (C. albicans ATCC-90028; ATCC90028, read-out: minimal inhibitory concentrations) was 5 ng/mL. The MIC breakpoints (C. glabrata ATCC-90030; C. glabrata ATCC 90030, CLSI M27-A3, growth inhibition of 100%, 35° C., 24 hrs) was 60 ng/mL, the “MICs (100% inhibition)” value (C. glabrata ATCC-90030; C. glabrata ATCC 90030, NCCLS M27A, 35° C., 24 hrs) was 60 and the MIC (C. glabrata ATCC-90030; ATCC90030) was 0.02 µg/mL. For the same compound, the MIC (C. glabrata ATCC-90030; ATCC90030, read-out: minimal inhibitory concentrations) was 0.06 µg/mL, the MIC breakpoints (C. krusei ATCC-6258; C. krusei ATCC 6258, CLSI M27-A3, growth inhibition of 100%, 35° C., 24 hrs) was 60 ng/mL and the “MICs (100% inhibition)” value (C. krusei ATCC-6258; C. krusei ATCC 6258, NCCLS M27A, 35° C., 24 hrs) was 60. For the same compound, the MIC (C. krusei ATCC-6258; ATCC6258) was 0.02 µg/mL, the MIC (C. krusei ATCC-6258; ATCC6258, read-out: minimal inhibitory concentrations) was 0.06 µg/mL and the MIC breakpoints ([2]; C. parapsilosis ATCC 22019, CLSI M27-A3, growth inhibition of 100%, 35° C., 24 hrs) was 10240 ng/mL. The “MICs (100% inhibition)” value ([2]; C. parapsilosis ATCC 22019, NCCLS M27A, 35° C., 24 hrs) was 10240, the MIC ([2]; ATCC22019, read-out: minimal inhibitory concentrations) was 10.2 µg/mL and the MIC breakpoints ([3]; C. parapsilosis ATCC 90018, CLSI M27-A3, growth inhibition of 100%, 35° C., 24 hrs) was over 10240 ng/mL. For the same compound, the “MICs (100% inhibition)” value ([3]; C. parapsilosis ATCC 90018, NCCLS M27A, 35° C., 24 hrs) was over 10240, the MIC ([3]; ATCC90018, read-out: minimal inhibitory concentrations) was over 10.2 µg/mL and the MIC breakpoints (C. tropicalis ATCC-750; C. tropicalis ATCC 750, CLSI M27-A3, growth inhibition of 100%, 35° C., 24 hrs) was 7.5 ng/mL. For the same compound, the “MICs (100% inhibition)” value (C. tropicalis ATCC-750; C. tropicalis ATCC 750, NCCLS M27A, 35° C., 24 hrs) was 7.5, the MIC (C. tropicalis ATCC-750; ATCC750) was 5 ng/mL and the MIC (C. tropicalis ATCC-750; ATCC750, read-out: minimal inhibitory concentrations) was 7.5 ng/mL.
